Where two headings read alike, the source gives them in different places.
How the values were obtained:
heart rate [1] = test: Cardiovascular effect (heart rate) measured simultaneously in the rat model; format: in vivo; conditions: 0.5 and 2.0 mg./kg.
Procedure: (§1) In the rat, transient bronchoconstriction is induced with a short-lasting intravenous (i.v.) infusion of methacholine to obtain a control value and at various times thereafter following intraduodenal (i.d.) administration of the test drug. Doses of test drug blocking methacholine induced bronchoconstriction are determined. In the dog, sustained bronchoconstriction is induced by continuous i.v. infusion of serotonin and doses of test drug necessary to reverse the bronchoconstriction are determined. In both animal models, measurements of cardiovascular effects from test drug is made simultaneously with the determination of the dose reversing bronchoconstriction. These in vivo comparisons are considered particularly significant since the bronchoconstriction induced resembles asthma and intraduodenal drug dosing of the anesthetized animal (i.e., rat) is similar to oral administration to a conscious animal. In the rat, 2-hydroxy-5-[1-hydroxy-2-[(1,1-dimethyl-2-phenylethyl)animo]ethyl]benzeneacetonitrile hydrochloride at a dose of 0.5 mg./kg. and 2.0 mg./kg. of body weight antagonizes methacholine-induced bronchoconstriction by 33.5 ± 5.2% and 72.3 ± 4.0%, respectively.

guinea pig trachea = test: Effect on spontaneous tone of guinea pig tracheal chain preparations; conditions: Cavia porcellus; in vitro, bath concentration; read-out: effective bath concentration (EC) providing a 50% decrease in the spontaneous tone of the guinea pig trachea
From the text: (§2) Two in vitro test systems particularly useful in determining selective beta stimulant activity are: (1) effect on spontaneous tone of guinea pig tracheal chain preparations as a measure of relaxant effect on airway smooth muscle, and (2) effect on force and rate of spontaneously beating right atria of the guinea pig as a measure of beta-stimulant effect on cardiac muscle. If a beta-adrenergic agent exerts an effect on spontaneous tone of guinea pig trachea at a concentration lower than is required to affect heart force and rate, there is a positive separation ratio and the agent is considered to have bronchodilator activity with minimal cardiac stimulation. Thus, a comparison of the test agent with standard beta-stimulants such as isoproterenol or other beta-adrenergic agents can be made and relative bronchial selectivity determined.

[2] = test system: serotonin-increase pulmonary airway resistance; test: Serotonin-induced sustained bronchoconstriction in anesthetized dog; format: in vivo
Procedure: as §1

[3] = test system: methacholine-induced bronchoconstriction; test: Methacholine-induced bronchoconstriction in anesthetized rat; format: in vivo; conditions: intraduodenal
Procedure: as §1

heart rate [4] = test: Cardiovascular effect (heart rate) measured simultaneously in the dog model; format: in vivo; conditions: 0.125 and 0.5 mg./kg.
Procedure: as §1

guinea pig right atria = test: Effect on force and rate of spontaneously beating right atria of the guinea pig; conditions: Cavia porcellus, in vitro
From the text: as §2

CC(C)(Cc1ccccc1)NCC(O)c1ccc(O)c(CC#N)c1.Cl (stereo not drawn) [2-Hydroxy-5-[1-hydroxy-2-[(1,1-dimethyl-2-phenylethyl)amino]ethyl]benzeneacetonitrile Hydrochloride]
effect on heart rate at bronchodilating doses (heart rate [1]): without appreciably affecting heart rate | EC50 (guinea pig trachea): 0.0055 ± 0.0008 µg/mL | reduction of serotonin-increase pulmonary airway resistance ([2]; 0.125 mg./kg. body weight): 49.7 ± 13.4% | reduction of serotonin-increase pulmonary airway resistance ([2]; 0.5 mg./kg. body weight): 96.7 ± 12.3% | antagonism of methacholine-induced bronchoconstriction ([3]; 0.5 mg./kg. of body weight): 33.5 ± 5.2% | antagonism of methacholine-induced bronchoconstriction ([3]; 2.0 mg./kg. of body weight): 72.3 ± 4.0% | effect on heart rate at bronchodilating doses (heart rate [4]): without appreciably affecting heart rate | EC50 (guinea pig right atria; force, read-out: EC50 increasing the force of guinea pig right atria): 0.16 ± 0.028 µg/mL | EC50 (guinea pig right atria; rate, read-out: EC50 increasing the rate of guinea pig right atria): 0.33 ± 0.1 µg/mL

Reference: patent US4055658A, “Cyanomethylphenethanolamines” (Mead Johnson & Company, priority 1976, dated 1977)
